Measured values from publication PMC9784969, “SARS-CoV-2 Inhibitors Identified by Phenotypic Analysis of a Collection of Viral RNA-Binding Molecules” (Pharmaceuticals, 2022).
Read-outs that look alike come from different tables or passages of the source.

Tests used:
PRF RNA = experiment: ligand-based 1H NMR (1D, CPMG, wLOGSY); format: binding, SARS-CoV-2
SCoV2 RNA elements = experiment: ligand-based 1H NMR (1D, CPMG, wLOGSY), six RNA elements compared; format: binding, SARS-CoV-2; settings: CSP, LB, CPMG and wLOGSY perturbations; 300 µM compound
Description: We first used ligand-based ^1H NMR experiments to analyze the interaction of the selected compounds with each of the six RNA elements specified above, including one-dimensional, Carr–Purcell–Meiboom–Gill (CPMG) and waterLOGSY (wLOGSY) experiments. These assays detect changes in the ^1H signals of the ligand upon RNA association (Figure 4A), and have been successfully used to evaluate small-molecule binding to RNA motifs, including elements of the SCoV2 genome.
Each ligand (at a concentration of 300 μM) was mixed with a smaller quantity of RNA in an aqueous solution containing 25 mM potassium phosphate (pH 6.2), 150 mM KCl, 3 mM MgCl2, and 10% D2O. RNA–ligand molar ratios of 1:50 and 1:100 were explored (with 6 and 3 μM RNA, respectively). […] The water signal was suppressed from one-dimensional experiments with a watergate sequence. The CPMG experiments were acquired with 100, 200, 300, and 400 ms relaxation delays before acquisition, and water suppression was achieved by presaturation. wLOGSY experiments employed a selective Gaussian 180° pulse at the water frequency and an NOE mixing time of 1.5 s and suppressed the water signal by excitation sculpting. All spectra were acquired in the absence and presence of RNA.
All ligand signals were individually analyzed. For clomiphene citrate, the signals corresponding to cis and trans forms were identified by comparing the spectrum of clomiphene citrate with those of the individual stereoisomers. In CPMG experiments, the binding of the compounds to the different RNA sequences was quantified as 100 minus the percentage of ligand signal area in the +RNA CPMG spectrum relative to the corresponding signal area in the -RNA CPMG spectrum. In wLOGSY experiments, binding was quantified with the LOGSY factor, or % of ligand signal in the difference spectrum between the +RNA and –RNA wLOGSY spectra, relative to the corresponding signal in the one-dimensional -RNA reference spectrum. In one-dimensional experiments, line broadening (LB) was quantified as explained for CPMG spectra.

SARS-CoV-2 = format: cell-based; settings: 48 h post-infection
3_S2m RNA [1] = experiment: RNA-based 1H NMR (TOCSY) titration; format: binding, SARS-CoV-2; settings: RNA:ligand up to 1:4
Description: The RNA samples were previously diafiltrated into an aqueous solution containing 25 mM potassium phosphate (pH 6.2), 50 mM KCl and 0.1 mM EDTA, and the titration experiments were carried out at 27 °C using 50 μM RNA samples in 100% D2O. The 3_S2m titrations were duplicated at 25 °C using 120 μM RNA samples and additionally acquiring NOESY spectra (250 ms mixing time) at 1:0 and 1:4 ratios. For this system, the chemical shift perturbation analyses included 63 H1’, H2’, and aromatic 3_S2m resonances. The isolated 3_S2m hairpin was studied at two different temperatures (25 and 35 °C) using 120 and 500 μM RNA samples and similar TOCSY and NOESY (120 and 250 ms mixing times) experiments. […] The relaxation delay for NOESY and TOCSY acquisition was 2 and 1.5 s, respectively.

ATTL RNA = experiment: ligand-based 1H NMR (1D, CPMG, wLOGSY); format: binding, SARS-CoV-2
SCoV2 USA-WA1/2020 = format: cell-based
SARS-CoV-2 USA-WA1/2020 [2] = experiment: microbe, parasite or virus in culture; format: cell-based; settings: Severe acute respiratory syndrome coronavirus 2, 48 h; 293T-ACE2 cells, MOI 0.25, two days; read-out: SARS-CoV-2 EC50
3_S2m RNA [3] = experiment: ligand-based 1H NMR (1D, CPMG, wLOGSY); format: binding, SARS-CoV-2
SARS-CoV-2 USA-WA1/2020 [4] = experiment: microbe, parasite or virus in culture; format: cell-based; settings: Severe acute respiratory syndrome coronavirus 2, Vero C1008, 48 h, Vero E6 cells, MOI 0.025, two days; read-out: SARS-CoV-2 EC50
in vitro = settings: African green monkey, uninfected Vero E6 cells
3_S2m-23fl RNA hairpin = experiment: fluorescence intensity binding assay; design: species or system SARS-CoV-2; settings: 0 mM NaCl, pH 6.6, 25 °C; read-out: Kd
Description: The 3_S2m-23fl RNA oligonucleotide used in fluorescence intensity experiments was purchased HPLC-purified from Integrated DNA Technologies (Coralville, IA, USA). […] The mixture of tRNAs from E. coli MRE 600 (identified as tRNA^mix) used to evaluate specificity was obtained from Roche (Basel, Switzerland).
3_S2m-23fl (at 100 nM concentration) was snap-cooled in a buffer containing sodium phosphate pH 6.6, 0 or 150 mM NaCl, and 0.1 mM EDTA and incubated with increasing amounts of compound. The specificity of the RNA–ligand interactions was evaluated by repeating the assays in the presence of a 100-fold molar excess (10 μM) of tRNA^mix. The equilibrium dissociation constants Kd were obtained by fitting the dose–response curves to a two-state binding model [41] with Prism software (GraphPad Software, San Diego, CA, USA). All fluorescence binding assays were carried out three times for each molecule and condition.

[5] = average of aliphatic protons, RNA:ligand 1:100 (clomiphene) or 1:50 (trim, qz2)
[6] = average of aromatic protons, RNA:ligand 1:100 (clomiphene) or 1:50 (trim, qz2)

## CC(C)CCN1CCC(CNc2nc3ccccc3c(=O)[nH]2)CC1 [qz2]
PRF RNA; [5]
  CPMG variation: -10.71%
  LB: -3.21%
  LOGSY factor: 3.74%
PRF RNA; [6]
  CPMG variation: 13.0%
  LB: -0.27%
  LOGSY factor: 22.5%
PRF RNA; qz2 peak A, RNA:ligand 1:50
  CPMG variation: -12.9%
  LB: -3.66%
  LOGSY factor: 3.10%
PRF RNA; qz2 peak C/D, RNA:ligand 1:50
  CPMG variation: -17.7%
  LB: -8.83%
  LOGSY factor: 7.49%
PRF RNA; qz2 peak E/B, RNA:ligand 1:50
  CPMG variation: -18.2%
  LB: 3.04%
  LOGSY factor: 2.11%
PRF RNA; qz2 peak F, RNA:ligand 1:50
  CPMG variation: -0.60%
  LB: -8.91%
  LOGSY factor: 3.69%
PRF RNA; qz2 peak G, RNA:ligand 1:50
  CPMG variation: -7.24%
  LB: 1.78%
  LOGSY factor: 2.32%
PRF RNA; qz2 peak I, RNA:ligand 1:50
  CPMG variation: 13.2%
  LB: -0.20%
  LOGSY factor: 13.3%
PRF RNA; qz2 peak J, RNA:ligand 1:50
  CPMG variation: 11.4%
  LB: -1.72%
  LOGSY factor: 42.7%
PRF RNA; qz2 peak K, RNA:ligand 1:50
  CPMG variation: 14.6%
  LB: 1.11%
  LOGSY factor: 11.4%
SCoV2 RNA elements
  RNA binding preference: bound to the ORF7b element only
SARS-CoV-2
  viral titers in supernatants (TCID50): below the limit of detection
3_S2m RNA [1]
  RNA chemical shift perturbations: smaller perturbations
ATTL RNA; [5]
  CPMG variation: 1.57%
  LB: 4.09%
  LOGSY factor: 4.38%
ATTL RNA; [6]
  CPMG variation: 10.0%
  LB: 3.39%
  LOGSY factor: 9.98%
ATTL RNA; qz2 peak A, RNA:ligand 1:50
  CPMG variation: 7.14%
  LB: 6.48%
  LOGSY factor: 2.39%
ATTL RNA; qz2 peak C/D, RNA:ligand 1:50
  CPMG variation: 3.98%
  LB: 2.52%
  LOGSY factor: 6.82%
ATTL RNA; qz2 peak E/B, RNA:ligand 1:50
  CPMG variation: -8.59%
  LB: 7.56%
  LOGSY factor: 2.78%
ATTL RNA; qz2 peak F, RNA:ligand 1:50
  CPMG variation: 7.26%
  LB: -1.84%
  LOGSY factor: 3.39%
ATTL RNA; qz2 peak G, RNA:ligand 1:50
  CPMG variation: 2.72%
  LB: 8.16%
  LOGSY factor: 6.53%
ATTL RNA; qz2 peak I, RNA:ligand 1:50
  CPMG variation: 9.63%
  LB: 3.05%
  LOGSY factor: 10.3%
ATTL RNA; qz2 peak J, RNA:ligand 1:50
  CPMG variation: 9.03%
  LB: 12.1%
  LOGSY factor: 5.22%
ATTL RNA; qz2 peak K, RNA:ligand 1:50
  CPMG variation: 10.5%
  LB: -5.00%
  LOGSY factor: 14.4%
SCoV2 USA-WA1/2020; 293T-ACE2, MOI 2, 8-h single cycle, added at +2 h relative to infection
  nucleocapsid protein expression: strongly inhibited
SCoV2 USA-WA1/2020; 293T-ACE2, MOI 2, relative to infection
  time of addition with maximum inhibition: -2 h
SARS-CoV-2 USA-WA1/2020 [2]
  EC50: 0.12 µM
3_S2m RNA [3]; [5]
  CPMG variation: -0.71%
  LB: 1.30%
  LOGSY factor: 3.15%
3_S2m RNA [3]; [6]
  CPMG variation: 10.3%
  LB: 6.50%
  LOGSY factor: 11.1%
3_S2m RNA [3]; qz2 peak A, RNA:ligand 1:50
  CPMG variation: 6.71%
  LB: 4.87%
  LOGSY factor: 1.60%
3_S2m RNA [3]; qz2 peak C/D, RNA:ligand 1:50
  CPMG variation: -1.93%
  LB: 2.61%
  LOGSY factor: 3.32%
3_S2m RNA [3]; qz2 peak E/B, RNA:ligand 1:50
  CPMG variation: -10.6%
  LB: 11.4%
  LOGSY factor: 6.11%
3_S2m RNA [3]; qz2 peak F, RNA:ligand 1:50
  CPMG variation: 6.38%
  LB: -12.7%
  LOGSY factor: 2.81%
3_S2m RNA [3]; qz2 peak G, RNA:ligand 1:50
  CPMG variation: -1.76%
  LB: 4.32%
  LOGSY factor: 1.92%
3_S2m RNA [3]; qz2 peak I, RNA:ligand 1:50
  CPMG variation: 10.3%
  LB: 11.5%
  LOGSY factor: 5.19%
3_S2m RNA [3]; qz2 peak J, RNA:ligand 1:50
  CPMG variation: 9.16%
  LB: 11.3%
  LOGSY factor: 9.42%
3_S2m RNA [3]; qz2 peak K, RNA:ligand 1:50
  CPMG variation: 11.6%
  LB: -3.23%
  LOGSY factor: 18.7%
SARS-CoV-2 USA-WA1/2020 [4]
  EC50: 7.52 µM
In vitro
  CC50 at 2 days: > 20 µM
3_S2m-23fl RNA hairpin
  Kd: 26.7 µM
